From PubChem BioAssay AID248 (DTP/NCI, 2004)
Inconclusive results and toxic doses are left out.

Tested on: L1210 leukemia ip in BDF1 mice, survival T/C
Experiment: NCI In Vivo Anticancer Drug Screen. Data for tumor model L1210 Leukemia (intraperitoneal) in B6D2F1 (BDF1) mice
Conditions: endpoint: mean survival time, higher = longer survival
Outline: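 Survival endpoint. Drug-treated group vs vehicle group, expressed as T divided by C. Tumor passaged by transplantation.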

[1] = dose: 100.0 mg/kg/injection, schedule: Q04DX003 (ip), vehicle: saline
[2] = dose: 200.0 mg/kg/injection, schedule: Q04DX003 (ip), vehicle: saline
[3] = dose: 400.0 mg/kg/injection, schedule: Q04DX003 (ip), vehicle: saline
[4] = dose: 100.0 mg/kg/injection, schedule: Q01DX001 (ip), vehicle: Klucel (hydroxypropylcellulose) (HPC)
[5] = dose: 200.0 mg/kg/injection, schedule: Q01DX001 (ip), vehicle: Klucel (hydroxypropylcellulose) (HPC)
[6] = dose: 400.0 mg/kg/injection, schedule: Q01DX001 (ip), vehicle: Klucel (hydroxypropylcellulose) (HPC)
[7] = dose: 100.0 mg/kg/injection, schedule: Q01DX001 (ip), vehicle: saline
[8] = dose: 200.0 mg/kg/injection, schedule: Q01DX001 (ip), vehicle: saline
[9] = dose: 400.0 mg/kg/injection, schedule: Q01DX001 (ip), vehicle: saline
[10] = dose: 50.0 mg/kg/injection, schedule: Q01DX001 (ip), vehicle: saline

**Q.** `C=C1C=C(C)N(C(=O)c2ccccc2)CCN1C(=O)c1ccccc1` was tested. Which T/C [1] did it give?
**A.** 96 % of control

**Q.** What about the T/C [2] of the same molecule?
**A.** 95 % of control

**Q.** What about the T/C [3] of the same molecule?
**A.** 106 % of control

**Q.** `Cc1ccc(O)c(-c2ccccc2)c1` was tested. Which T/C [4] did it give?
**A.** 100 % of control

**Q.** What about the T/C [5] of the same molecule?
**A.** 100 % of control

**Q.** And the T/C [6]?
**A.** 103 % of control

**Q.** Which T/C [7] does the source give for `CC1=C(N2CCN(c3ccc(Cl)cc3)CC2)C(=O)CC(C)(C)C1` here?
**A.** 97 % of control

**Q.** And the T/C [8]?
**A.** 101 % of control

**Q.** What about the T/C [9] of the same molecule?
**A.** 103 % of control

**Q.** For `CN1C(c2ccccc2)NC(=O)C12CCN(CCCC(=O)c1ccccc1)CC2` (stereo not given), which T/C [4] is on record?
**A.** 100 % of control

**Q.** What about the T/C [5] of the same molecule?
**A.** 96 % of control

**Q.** What about the T/C [6] of the same molecule?
**A.** 100 % of control

**Q.** How did the T/C (dose: 5.0 mg/kg/injection, schedule: Q01DX001 (ip), vehicle: saline) turn out when `NC(=Nc1ccc(Cl)cc1)N/N=C/c1ccc(Cl)cc1` was run?
**A.** 94 % of control

**Q.** What about the T/C (dose: 10.0 mg/kg/injection, schedule: Q01DX001 (ip), vehicle: saline) of the same molecule?
**A.** 100 % of control

**Q.** And the T/C (dose: 20.0 mg/kg/injection, schedule: Q01DX001 (ip), vehicle: saline)?
**A.** 94 % of control

**Q.** And the T/C (dose: 40.0 mg/kg/injection, schedule: Q01DX001 (ip), vehicle: saline)?
**A.** 91 % of control

**Q.** What about the T/C (dose: 80.0 mg/kg/injection, schedule: Q01DX001 (ip), vehicle: saline) of the same molecule?
**A.** 91 % of control

**Q.** And the T/C [7]?
**A.** 92 % of control

**Q.** And the T/C [8]?
**A.** 89 % of control

**Q.** What about the T/C [9] of the same molecule?
**A.** 103 % of control

**Q.** For `COC(=O)c1cn[nH]c1/N=N/N(C)CCO`, which T/C [7] is on record?
**A.** 113 % of control

**Q.** What about the T/C [1] of the same molecule?
**A.** 119 % of control

**Q.** And the T/C [8]?
**A.** 117 % of control

**Q.** And the T/C (dose: 200.0 mg/kg/injection, schedule: Q01DX009 (ip), vehicle: saline)?
**A.** 163 % of control

**Q.** And the T/C [2]?
**A.** 119 % of control

**Q.** What about the T/C [9] of the same molecule?
**A.** 107 % of control

**Q.** And the T/C [3]?
**A.** 119 % of control

**Q.** `CCOC(=O)C(C(C)=O)C(c1ccc(OCc2ccccc2)c(C)c1)C(C(C)=O)C(=O)OCC` (stereo not given) was tested. Which T/C [1] did it give?
**A.** 94 % of control

**Q.** And the T/C [2]?
**A.** 94 % of control

**Q.** And the T/C [3]?
**A.** 95 % of control

**Q.** Which T/C (dose: 100.0 mg/kg/injection, schedule: Q04DX002 (ip), vehicle: saline with Tween-80) does the source give for `CCOC(C)=NC1=C(C#N)CP(c2ccccc2)CC1` (stereo not given) here?
**A.** 103 % of control

**Q.** What about the T/C (dose: 200.0 mg/kg/injection, schedule: Q04DX002 (ip), vehicle: saline with Tween-80) of the same molecule?
**A.** 95 % of control

**Q.** And the T/C (dose: 400.0 mg/kg/injection, schedule: Q04DX002 (ip), vehicle: saline with Tween-80)?
**A.** 92 % of control

**Q.** Which T/C (dose: 100.0 mg/kg/injection, schedule: Q01DX001 (ip), vehicle: other) does the source give for `CNC(=O)c1cccc2c1-c1ccccc1C2=O` here?
**A.** 91 % of control

**Q.** What about the T/C (dose: 200.0 mg/kg/injection, schedule: Q01DX001 (ip), vehicle: other) of the same molecule?
**A.** 91 % of control

**Q.** What about the T/C (dose: 400.0 mg/kg/injection, schedule: Q01DX001 (ip), vehicle: other) of the same molecule?
**A.** 91 % of control

**Q.** For `CCOC(=O)n1cnc2nc(N)nc(SC)c21`, which T/C [10] is on record?
**A.** 103 % of control

**Q.** What about the T/C [7] of the same molecule?
**A.** 97 % of control

**Q.** What about the T/C [8] of the same molecule?
**A.** 100 % of control

**Q.** What about the T/C [9] of the same molecule?
**A.** 122 % of control

**Q.** `CCCn1c(N)cc(=O)[nH]c1=S` was tested. Which T/C [10] did it give?
**A.** 100 % of control

**Q.** And the T/C [7]?
**A.** 96 % of control

**Q.** And the T/C [8]?
**A.** 100 % of control

**Q.** And the T/C [9]?
**A.** 100 % of control

**Q.** With `Clc1cc[c]([Sn]([Cl])([c]2ccc(Cl)cc2)[c]2ccc(Cl)cc2)cc1` as the molecule, how does the T/C (dose: 1.56 mg/kg/injection, schedule: Q01DX009 (ip), vehicle: saline) read?
**A.** 98 % of control

**Q.** What about the T/C (dose: 3.12 mg/kg/injection, schedule: Q01DX009 (ip), vehicle: saline) of the same molecule?
**A.** 106 % of control

**Q.** How did the T/C (dose: 75.0 mg/kg/injection, schedule: Q01DX001 (ip), vehicle: saline) turn out when `O=Cc1ccc[n+](Cc2ccccc2)c1` was run?
**A.** 98 % of control

**Q.** And the T/C (dose: 150.0 mg/kg/injection, schedule: Q01DX001 (ip), vehicle: saline)?
**A.** 102 % of control

**Q.** What about the T/C (dose: 300.0 mg/kg/injection, schedule: Q01DX001 (ip), vehicle: saline) of the same molecule?
**A.** 102 % of control

**Q.** Which results are given for `CC(C)(O)c1cccc(F)c1`?
**A.** T/C (dose: 50.0 mg/kg/injection, schedule: Q01DX009 (ip), vehicle: saline with Tween-80): 90 % of control; T/C (dose: 100.0 mg/kg/injection, schedule: Q01DX009 (ip), vehicle: saline with Tween-80): 93 % of control; T/C (dose: 200.0 mg/kg/injection, schedule: Q01DX009 (ip), vehicle: saline with Tween-80): 121 % of control

**Q.** `CCCCCC/C=C1/CCC/C1=N\NC(=O)c1ccc[n+](C)c1` was tested. Which T/C (dose: 25.0 mg/kg/injection, schedule: Q04DX003 (ip), vehicle: saline) did it give?
**A.** 100 % of control

**Q.** And the T/C (dose: 50.0 mg/kg/injection, schedule: Q04DX003 (ip), vehicle: saline)?
**A.** 101 % of control

**Q.** And the T/C [1]?
**A.** 100 % of control
